# Assay results taken from ChEMBL document CHEMBL5370683, “Peptide-to-Small Molecule: Discovery of Non-Covalent, Active-Site Inhibitors of β-Herpesvirus Proteases” (ACS Med Chem Lett, 2023).
# Peptide text beside a SMILES is read from it.
# Key:
# [1] = Inhibition of amino terminal GST tagged HCMV protease (1 to 256 residues) expressed in Escherichia coli BL21 (DE3) cells using 5-carboxyfluorescein [FAM]-RGVVNASSRLAK as peptide substrate incubated for 3 hrs by fluorescence based analysis; set-up: species or system Human betaherpesvirus 5
# [2] = Apparent permeability across apical to basolateral side in LLC-PK1 cells at 2 uM incubated for 2 hrs by LC/MS/MS method; assay type: ADME, cell-based, Sus scrofa; conditions: pig
# Human betaherpesvirus 5 = assay: Antiviral activity against HCMV infected in HFF cells assessed as reduction in viral replication; assay type: functional, organism-based; conditions: Human betaherpesvirus 5, HFF
# [3] = Inhibition of N-terminal 6 His-tagged HHV6 protease (2 to 230 residues) expressed in Escherichia coli BL21 cells using 5FAM-KPSILNASLTPETVKK as peptide substrate incubated for 3 hrs by fluorescence based analysis; set-up: species or system Human betaherpesvirus 6
# [4] = Cytotoxicity against HFF cells assessed as inhibition in cell viability incubated for 5 days by luminescence based analysis; assay type: toxicity; conditions: human, time 5 day
# [5] = Inhibition of amino terminal GST tagged HCMV protease I2A mutant (1 to 256 residues) expressed in Escherichia coli BL21 (DE3) cells using 5-carboxyfluorescein [FAM]-RGVVNASSRLAK as peptide substrate incubated for 3 hrs by fluorescence based analysis; set-up: species or system Human betaherpesvirus 5
# [6] = Inhibition of N-terminal 6 His-tagged HHV6 protease […] mutant (2 to 230 residues) expressed in Escherichia coli BL21 cells using 5FAM-KPSILNASLTPETVKK as peptide substrate incubated for 3 hrs by fluorescence based analysis; set-up: species or system Human betaherpesvirus 6
# [7] = Inhibition of N-terminal 6 His-tagged HHV6 protease T3A mutant (2 to 230 residues) expressed in Escherichia coli BL21 cells using 5FAM-KPSILNASLTPETVKK as peptide substrate incubated for 3 hrs by fluorescence based analysis; set-up: species or system Human betaherpesvirus 6
# [8] = Inhibition of amino terminal GST tagged HCMV protease T3A mutant (1 to 256 residues) expressed in Escherichia coli BL21 (DE3) cells using 5-carboxyfluorescein [FAM]-RGVVNASSRLAK as peptide substrate incubated for 3 hrs by fluorescence based analysis; set-up: species or system Human betaherpesvirus 5
# [9] = Inhibition of amino terminal GST tagged HCMV protease H5A mutant (1 to 256 residues) expressed in Escherichia coli BL21 (DE3) cells using 5-carboxyfluorescein [FAM]-RGVVNASSRLAK as peptide substrate incubated for 3 hrs by fluorescence based analysis; set-up: species or system Human betaherpesvirus 5
# [10] = Inhibition of N-terminal 6 His-tagged HHV6 protease H5A mutant (2 to 230 residues) expressed in Escherichia coli BL21 cells using 5FAM-KPSILNASLTPETVKK as peptide substrate incubated for 3 hrs by fluorescence based analysis; set-up: species or system Human betaherpesvirus 6
# [11] = Inhibition of amino terminal GST tagged HCMV protease Y6A mutant (1 to 256 residues) expressed in Escherichia coli BL21 (DE3) cells using 5-carboxyfluorescein [FAM]-RGVVNASSRLAK as peptide substrate incubated for 3 hrs by fluorescence based analysis; set-up: species or system Human betaherpesvirus 5
# [12] = Inhibition of N-terminal 6 His-tagged HHV6 protease Y6A mutant (2 to 230 residues) expressed in Escherichia coli BL21 cells using 5FAM-KPSILNASLTPETVKK as peptide substrate incubated for 3 hrs by fluorescence based analysis; set-up: species or system Human betaherpesvirus 6
# [13] = Inhibition of amino terminal GST tagged HCMV protease W7A mutant (1 to 256 residues) expressed in Escherichia coli BL21 (DE3) cells using 5-carboxyfluorescein [FAM]-RGVVNASSRLAK as peptide substrate incubated for 3 hrs by fluorescence based analysis; set-up: species or system Human betaherpesvirus 5
# [14] = Inhibition of N-terminal 6 His-tagged HHV6 protease W7A mutant (2 to 230 residues) expressed in Escherichia coli BL21 cells using 5FAM-KPSILNASLTPETVKK as peptide substrate incubated for 3 hrs by fluorescence based analysis; set-up: species or system Human betaherpesvirus 6
# [15] = Inhibition of N-terminal 6 His-tagged HHV6 protease V8A mutant (2 to 230 residues) expressed in Escherichia coli BL21 cells using 5FAM-KPSILNASLTPETVKK as peptide substrate incubated for 3 hrs by fluorescence based analysis; set-up: species or system Human betaherpesvirus 6
# [16] = Inhibition of amino terminal GST tagged HCMV protease V8A mutant (1 to 256 residues) expressed in Escherichia coli BL21 (DE3) cells using 5-carboxyfluorescein [FAM]-RGVVNASSRLAK as peptide substrate incubated for 3 hrs by fluorescence based analysis; set-up: species or system Human betaherpesvirus 5
# [17] = Inhibition of amino terminal GST tagged HCMV protease R9A mutant (1 to 256 residues) expressed in Escherichia coli BL21 (DE3) cells using 5-carboxyfluorescein [FAM]-RGVVNASSRLAK as peptide substrate incubated for 3 hrs by fluorescence based analysis; set-up: species or system Human betaherpesvirus 5
# [18] = Inhibition of N-terminal 6 His-tagged HHV6 protease R9A mutant (2 to 230 residues) expressed in Escherichia coli BL21 cells using 5FAM-KPSILNASLTPETVKK as peptide substrate incubated for 3 hrs by fluorescence based analysis; set-up: species or system Human betaherpesvirus 6
# [19] = Inhibition of amino terminal GST tagged HCMV protease F10A mutant (1 to 256 residues) expressed in Escherichia coli BL21 (DE3) cells using 5-carboxyfluorescein [FAM]-RGVVNASSRLAK as peptide substrate incubated for 3 hrs by fluorescence based analysis; set-up: species or system Human betaherpesvirus 5
# [20] = Inhibition of N-terminal 6 His-tagged HHV6 protease F10A mutant (2 to 230 residues) expressed in Escherichia coli BL21 cells using 5FAM-KPSILNASLTPETVKK as peptide substrate incubated for 3 hrs by fluorescence based analysis; set-up: species or system Human betaherpesvirus 6
# [21] = Inhibition of N-terminal 6 His-tagged HHV6 protease L11A mutant (2 to 230 residues) expressed in Escherichia coli BL21 cells using 5FAM-KPSILNASLTPETVKK as peptide substrate incubated for 3 hrs by fluorescence based analysis; set-up: species or system Human betaherpesvirus 6
# [22] = Inhibition of amino terminal GST tagged HCMV protease L11A mutant (1 to 256 residues) expressed in Escherichia coli BL21 (DE3) cells using 5-carboxyfluorescein [FAM]-RGVVNASSRLAK as peptide substrate incubated for 3 hrs by fluorescence based analysis; set-up: species or system Human betaherpesvirus 5
# [23] = Inhibition of N-terminal 6 His-tagged HHV6 protease P12A mutant (2 to 230 residues) expressed in Escherichia coli BL21 cells using 5FAM-KPSILNASLTPETVKK as peptide substrate incubated for 3 hrs by fluorescence based analysis; set-up: species or system Human betaherpesvirus 6
# [24] = Inhibition of amino terminal GST tagged HCMV protease P12A mutant (1 to 256 residues) expressed in Escherichia coli BL21 (DE3) cells using 5-carboxyfluorescein [FAM]-RGVVNASSRLAK as peptide substrate incubated for 3 hrs by fluorescence based analysis; set-up: species or system Human betaherpesvirus 5
compound,measurement,setting,value
Cc1ccc([C@@H](c2cn(C3CCCC3)nc2-c2ccccc2C)n2cccc(N3C[C@H](C(=O)NC45CCC(CC4)NC5=O)N(C)C3=O)c2=O)cc1,IC50,[1],2500 nM
same,"Papp A→B at 2 h, 2 µM",[2],1.3 ×10⁻⁶ cm/s
same,EC50,Human betaherpesvirus 5,60000 nM
same,IC50,[3],330 nM
same,CC50 at 120 h,[4],51000 nM
CC(=O)N[C@@H](Cc1ccccc1)C(=O)N[C@@H](C)C(=O)N[C@H](C(=O)NCC(=O)N[C@@H](Cc1c[nH]cn1)C(=O)N[C@@H](Cc1ccc(O)cc1)C(=O)N[C@@H](Cc1c[nH]c2ccccc12)C(=O)N[C@H](C(=O)N[C@@H](CCCNC(=N)N)C(=O)N[C@@H](Cc1ccccc1)C(=O)N[C@@H](CC(C)C)C(=O)N1CCC[C@H]1C(=O)N[C@@H](CS)C(=O)NCC(N)=O)C(C)C)[C@@H](C)O (Ac-FATGHYWVRFLPCG-NH2),IC50,[5],184 nM
same,IC50,[6],< 76 nM
CC[C@H](C)[C@H](NC(=O)[C@H](Cc1ccccc1)NC(C)=O)C(=O)N[C@@H](C)C(=O)NCC(=O)N[C@@H](Cc1c[nH]cn1)C(=O)N[C@@H](Cc1ccc(O)cc1)C(=O)N[C@@H](Cc1c[nH]c2ccccc12)C(=O)N[C@H](C(=O)N[C@@H](CCCNC(=N)N)C(=O)N[C@@H](Cc1ccccc1)C(=O)N[C@@H](CC(C)C)C(=O)N1CCC[C@H]1C(=O)N[C@@H](CS)C(=O)NCC(N)=O)C(C)C (Ac-FIAGHYWVRFLPCG-NH2),IC50,[7],100 nM
same,IC50,[8],157 nM
CC[C@H](C)[C@H](NC(=O)[C@H](Cc1ccccc1)NC(C)=O)C(=O)N[C@H](C(=O)NCC(=O)N[C@@H](C)C(=O)N[C@@H](Cc1ccc(O)cc1)C(=O)N[C@@H](Cc1c[nH]c2ccccc12)C(=O)N[C@H](C(=O)N[C@@H](CCCNC(=N)N)C(=O)N[C@@H](Cc1ccccc1)C(=O)N[C@@H](CC(C)C)C(=O)N1CCC[C@H]1C(=O)N[C@@H](CS)C(=O)NCC(N)=O)C(C)C)[C@@H](C)O (Ac-FITGAYWVRFLPCG-NH2),IC50,[9],109 nM
same,IC50,[10],86 nM
CC[C@H](C)[C@H](NC(=O)[C@H](Cc1ccccc1)NC(C)=O)C(=O)N[C@H](C(=O)NCC(=O)N[C@@H](Cc1c[nH]cn1)C(=O)N[C@@H](C)C(=O)N[C@@H](Cc1c[nH]c2ccccc12)C(=O)N[C@H](C(=O)N[C@@H](CCCNC(=N)N)C(=O)N[C@@H](Cc1ccccc1)C(=O)N[C@@H](CC(C)C)C(=O)N1CCC[C@H]1C(=O)N[C@@H](CS)C(=O)NCC(N)=O)C(C)C)[C@@H](C)O (Ac-FITGHAWVRFLPCG-NH2),IC50,[11],689 nM
same,IC50,[12],85 nM
CC[C@H](C)[C@H](NC(=O)[C@H](Cc1ccccc1)NC(C)=O)C(=O)N[C@H](C(=O)NCC(=O)N[C@@H](Cc1c[nH]cn1)C(=O)N[C@@H](Cc1ccc(O)cc1)C(=O)N[C@@H](C)C(=O)N[C@H](C(=O)N[C@@H](CCCNC(=N)N)C(=O)N[C@@H](Cc1ccccc1)C(=O)N[C@@H](CC(C)C)C(=O)N1CCC[C@H]1C(=O)N[C@@H](CS)C(=O)NCC(N)=O)C(C)C)[C@@H](C)O (Ac-FITGHYAVRFLPCG-NH2),IC50,[13],811 nM
same,IC50,[14],250 nM
CC[C@H](C)[C@H](NC(=O)[C@H](Cc1ccccc1)NC(C)=O)C(=O)N[C@H](C(=O)NCC(=O)N[C@@H](Cc1c[nH]cn1)C(=O)N[C@@H](Cc1ccc(O)cc1)C(=O)N[C@@H](Cc1c[nH]c2ccccc12)C(=O)N[C@@H](C)C(=O)N[C@@H](CCCNC(=N)N)C(=O)N[C@@H](Cc1ccccc1)C(=O)N[C@@H](CC(C)C)C(=O)N1CCC[C@H]1C(=O)N[C@@H](CS)C(=O)NCC(N)=O)[C@@H](C)O (Ac-FITGHYWARFLPCG-NH2),IC50,[15],< 76 nM
same,IC50,[16],96 nM
CC[C@H](C)[C@H](NC(=O)[C@H](Cc1ccccc1)NC(C)=O)C(=O)N[C@H](C(=O)NCC(=O)N[C@@H](Cc1c[nH]cn1)C(=O)N[C@@H](Cc1ccc(O)cc1)C(=O)N[C@@H](Cc1c[nH]c2ccccc12)C(=O)N[C@H](C(=O)N[C@@H](C)C(=O)N[C@@H](Cc1ccccc1)C(=O)N[C@@H](CC(C)C)C(=O)N1CCC[C@H]1C(=O)N[C@@H](CS)C(=O)NCC(N)=O)C(C)C)[C@@H](C)O (Ac-FITGHYWVAFLPCG-NH2),IC50,[17],92 nM
same,IC50,[18],< 76 nM
CC[C@H](C)[C@H](NC(=O)[C@H](Cc1ccccc1)NC(C)=O)C(=O)N[C@H](C(=O)NCC(=O)N[C@@H](Cc1c[nH]cn1)C(=O)N[C@@H](Cc1ccc(O)cc1)C(=O)N[C@@H](Cc1c[nH]c2ccccc12)C(=O)N[C@H](C(=O)N[C@@H](CCCNC(=N)N)C(=O)N[C@@H](C)C(=O)N[C@@H](CC(C)C)C(=O)N1CCC[C@H]1C(=O)N[C@@H](CS)C(=O)NCC(N)=O)C(C)C)[C@@H](C)O (Ac-FITGHYWVRALPCG-NH2),IC50,[19],< 76 nM
same,IC50,[20],< 76 nM
CC[C@H](C)[C@H](NC(=O)[C@H](Cc1ccccc1)NC(C)=O)C(=O)N[C@H](C(=O)NCC(=O)N[C@@H](Cc1c[nH]cn1)C(=O)N[C@@H](Cc1ccc(O)cc1)C(=O)N[C@@H](Cc1c[nH]c2ccccc12)C(=O)N[C@H](C(=O)N[C@@H](CCCNC(=N)N)C(=O)N[C@@H](Cc1ccccc1)C(=O)N[C@@H](C)C(=O)N1CCC[C@H]1C(=O)N[C@@H](CS)C(=O)NCC(N)=O)C(C)C)[C@@H](C)O (Ac-FITGHYWVRFAPCG-NH2),IC50,[21],< 76 nM
same,IC50,[22],< 76 nM
CC[C@H](C)[C@H](NC(=O)[C@H](Cc1ccccc1)NC(C)=O)C(=O)N[C@H](C(=O)NCC(=O)N[C@@H](Cc1c[nH]cn1)C(=O)N[C@@H](Cc1ccc(O)cc1)C(=O)N[C@@H](Cc1c[nH]c2ccccc12)C(=O)N[C@H](C(=O)N[C@@H](CCCNC(=N)N)C(=O)N[C@@H](Cc1ccccc1)C(=O)N[C@@H](CC(C)C)C(=O)N[C@@H](C)C(=O)N[C@@H](CS)C(=O)NCC(N)=O)C(C)C)[C@@H](C)O (Ac-FITGHYWVRFLACG-NH2),IC50,[23],< 76 nM
same,IC50,[24],< 76 nM
